The values that follow come from PubChem BioAssay (NCI).

Values joined by “and” are separate entries in the source; they are usually repeats but may differ in a detail not shown here. Identical values can stand only once.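 Dose response: 5 concentrations. Exposure: 48 h. Format: 96-well plates. Endpoint: linear interpolation; highest concentration if not reached. GI50 = concentration required for 50% inhibition of growth. TGI: concentration producing complete growth inhibition.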 Some results are limits rather than exact numbers.

Common to all, as to test: NCI-60 cell line screen, 48 h
The subject of assay [1] is NCI-H226 lung.
Assay [2] deals with HOP-92 NSCLC.
Assay [3] deals with PC-3 prostate.
The test system of assay [4] is HCT-15 colon.
Assay [5] has as its system HS 578T breast.
Assay [6] deals with NCI-H460 lung.
The subject of assay [7] is SN12C renal.
In assay [8] the test system is HT29 colon.
Assay [9] relates to ACHN renal.
In assay [10] the test system is UO-31 renal.

Consider `FC(F)(F)c1ccc(-c2nn3ncccc3c2-c2ccnc(Nc3ccc4c(c3)OCCO4)n2)cc1`, for which the GI50 in assay [1] was over 20.5 µM; in [2] it was 2.02 µM; in assay [3], 7.32 µM; in assay [4] it was 8.18 µM; in assay [5] it was 10.9 µM; in [6], 11.9 µM. In addition, the GI50 in assay [7] was 9.77 µM; in assay [8] it was 6.03 µM; in [9], 14.7 µM; in assay [10], 3 µM. The TGI in assay [1] is over 25 µM; in assay [2], 21.9 µM; in assay [3], over 25 µM; in assay [4], over 25 µM; in assay [5], over 25 µM; in assay [6], over 25 µM. Moreover, the TGI was over 25 µM in [7], over 25 µM in assay [8], over 25 µM in assay [9] and over 21.9 µM in assay [10].

For the compound `CCn1cc(/C=C2\Oc3cc(OCC#N)ccc3C2=O)c2cc(OC)ccc21`, the GI50 in [1] was 6.65 µM; in assay [2], 11.2 µM; in assay [3], 0.218 µM; in [4] it was 0.153 µM; in [5] it was 0.267 µM; in assay [6], 0.347 µM. In addition, the GI50 in assay [7] is 0.711 µM; in assay [8], 0.134 µM; in [9] it was 0.847 µM; in assay [10] it was 0.669 µM. Moreover, the TGI in [1] was over 44.3 µM; in assay [2], 68.6 µM; in assay [3], 53.8 µM; in [4], over 100 µM; in [5], over 28.8 µM; in assay [6], over 100 µM. The TGI in assay [7], in assay [8], in assay [9] and in assay [10] was over 100 µM in each case.

Consider `O=C(NN1C(=O)CSC1c1cccc(Cl)c1)C(O)c1ccccc1` (stereo not drawn), for which the GI50 was 81 µM in assay [1]; over 100 µM in assay [2]; 60.6 µM in [3]; 68.6 µM in [4]; over 100 µM in [5]; 42.8 µM in assay [6]. The GI50 in assay [7] is over 100 µM; in [8], over 100 µM; in assay [9], 67.4 µM; in assay [10], 75.5 µM. In addition, the TGI in assay [1], in [2], in assay [3], in [4], in [5] and in assay [6] was over 100 µM throughout. The TGI in [7], in [8], in assay [9] and in assay [10] was over 100 µM throughout.

On to `CCSc1ccc([C@@H]2[C@@H](O)C(=O)N2c2cc(OC)c(OC)c(OC)c2)cc1`, for which the GI50 in [1] was 0.521 µM; in assay [3], 0.0146 µM; in assay [4] it was under 0.0109 µM; in assay [5], under 0.01 µM; in [6], under 0.0138 µM; in assay [7], 0.0441 µM. For the same compound, the GI50 in [8] was under 0.0155 µM; in [9], 0.0141 µM; in assay [10] it was 0.21 µM. Further, the TGI is 33.7 µM in [1]; 42.1 µM in assay [2]; 79.7 µM in [3]; over 44.3 µM in assay [4]; over 69.2 µM in assay [5]; 11.9 µM in assay [6]. The TGI in [7] is 22.2 µM; in assay [8], 11.5 µM; in assay [9], 43.7 µM; in assay [10], 34.2 µM.

`Cn1c(=O)n(C)c2cc(CNCCNc3ccnc4cc(Cl)ccc34)ccc21`: the GI50 in assay [1] is 72 µM; in assay [2] it was 10.1 µM; in [3], 34.6 µM; in assay [4], 31 µM; in assay [5], 23.8 µM; in assay [6], 20.9 µM. Moreover, the GI50 in assay [7] was 45.7 µM; in assay [8], 21.1 µM; in [9] it was 25.4 µM; in assay [10] it was 23.3 µM. Further, the TGI was over 100 µM in assay [1]; 49.6 µM in assay [2]; over 100 µM in assay [3]; over 100 µM in assay [4]; 95 µM in assay [5]; 60.8 µM in assay [6]. Moreover, the TGI in assay [7] is over 100 µM; in assay [8], over 100 µM; in assay [9] it was 93.4 µM; in [10] it was over 100 µM.

As for `O=C1/C(=C\c2ccco2)Oc2ccccc21`, the TGI in assay [1], in [2], in assay [3], in assay [4], in assay [5] and in assay [6] was over 100 µM in each case. The TGI in assay [7], in assay [8], in assay [9] and in assay [10] was over 100 µM throughout.

`O=[N+]([O-])c1cc([As](Br)c2ccc(O)c([N+](=O)[O-])c2)ccc1O`: the TGI in [1] is 3.21 µM; in [2], 2.96 µM; in assay [3] it was 3.64 µM; in assay [4], over 20.8 µM; in [5], 5.93 µM; in assay [6], over 25.6 µM. Also, the TGI in [7] was determined as 3.3 µM; in assay [8], 25 µM; in assay [9], 3.77 µM; in assay [10], 3.23 µM.

For the compound `Cc1cc(CCl)c(C)cc1CCl`, the GI50 in [1] is 2.89 µM; in [2] it was 2.52 µM; in [3], 2.25 µM; in assay [4], 2.72 µM; in assay [5] it was 2.4 µM; in assay [6], 0.12 µM. In addition, the GI50 in assay [7] was 0.605 µM; in assay [8], 1.44 µM; in assay [9], 0.695 µM; in assay [10] it was 1.53 µM. Moreover, the TGI came out at 16 µM in [1]; 9.55 µM in assay [2]; 10.1 µM in assay [3]; 17.3 µM in [4]; 8.21 µM in [5]; 1.43 µM in [6]. Also, the TGI in assay [7] was 13.6 µM; in [8] it was 3.68 µM; in [9], 3.08 µM; in [10], 3.71 µM.

On to `CCCCCCNCCCNc1c2cc(OC)ccc2nc2cccc([N+](=O)[O-])c12`, for which the GI50 was 0.38 µM in [1]; 0.239 µM in [2]; 0.212 µM in assay [4]; 0.242 µM in assay [5]; 0.0337 µM in assay [6]; 0.132 µM in assay [7]. Besides, the GI50 in assay [8] is 0.0544 µM; in assay [9], 0.159 µM; in assay [10] it was 0.187 µM. In addition, the TGI in [1] was 0.716 µM and 1.41 µM; in [2], 0.534 µM and 0.655 µM; in assay [3] it was 0.56 µM and 1.02 µM; in [4], 14.4 µM; in assay [5] it was 1.47 µM and 0.786 µM; in assay [6] it was 0.183 µM. The TGI in [7] is 0.421 µM and 0.343 µM; in assay [8], 0.407 µM and 0.353 µM; in assay [9], 1.54 µM and 0.535 µM; in [10] it was 0.703 µM and 0.431 µM.

Turning to `C=C1C(=O)OC2C1CCC(C)C1(O)C=CC(=O)C21C` (stereo not drawn), the TGI in assay [1], in [2], in assay [3], in [4], in [5] and in assay [6] was over 10 µM throughout. The TGI in assay [7], in [8], in assay [9] and in assay [10] was over 10 µM each time.

For the compound `CN(Cc1ccc(F)cc1)c1ccc(CO)c(Cl)c1`, the GI50 is 0.126 µM in assay [1]; 3.87 µM in assay [2]; 20.3 µM in assay [3]; 18.3 µM in assay [4]; 27.4 µM in assay [5]; 1.41 µM in [6]. The GI50 in [7] was 23.2 µM; in assay [8], 8.38 µM; in assay [9], 28.9 µM; in assay [10], 7.53 µM. Also, the TGI was 0.278 µM in [1]; 24 µM in assay [2]; over 68.3 µM in assay [3]; over 100 µM in [4]; 97.3 µM in assay [5]; 13.9 µM in [6]. For the same compound, the TGI was over 100 µM in [7], 67.1 µM in assay [8], over 100 µM in assay [9] and over 65.1 µM in [10].

As for `COc1ccc(-c2nc(-c3nc4cc(Cl)c(F)cc4[nH]3)c3ccccn23)cc1`, the GI50 in assay [1] is 14.5 µM; in assay [2], 3.24 µM; in assay [3], 4.58 µM; in assay [4] it was 5.72 µM; in [5] it was 12.2 µM; in assay [6] it was 5.43 µM. Besides, the GI50 is 11.2 µM in assay [7], 4.26 µM in assay [8], 7.34 µM in assay [9] and 2.62 µM in assay [10]. The TGI in assay [1], in assay [2], in assay [3], in [4], in [5] and in assay [6] was over 100 µM each time. Besides, the TGI in assay [7] was over 100 µM; in [8], over 100 µM; in [9] it was over 100 µM; in assay [10] it was 35.7 µM.

Take `O=C(c1ccc2ccccc2c1)c1nc2cc(F)ccc2[n+]([O-])c1C(F)(F)F`: the GI50 in assay [1] is 22.2 µM; in assay [2] it was 19.5 µM; in assay [3], 20.1 µM; in assay [4] it was 13 µM; in assay [5] it was 21.9 µM; in assay [6], 18.8 µM. For the same compound, the GI50 in assay [7] is 26.6 µM; in [8] it was 16.3 µM; in assay [9], 22.5 µM; in assay [10], 9.42 µM. In addition, the TGI in assay [1] amounted to 46.5 µM; in assay [2], 36.5 µM; in assay [3], 53.4 µM; in [4] it was 27.8 µM; in assay [5], 56.9 µM; in [6], 38 µM. The TGI is 71.4 µM in assay [7], 35.2 µM in [8], 60 µM in assay [9] and 48.8 µM in assay [10].

Consider `C/C(=C(/c1ccccc1)c1ccc(OCC(O)CNCCN2CCOCC2)cc1)c1ccccc1` (stereo not drawn), for which the GI50 is 12.1 µM in [1]; 1.5 µM in [2]; 2.78 µM in assay [3]; 2.19 µM in assay [4]; 1.77 µM in assay [5]; 1.8 µM in assay [6]. The GI50 was 5.08 µM in assay [7], 2.03 µM in assay [8], 3.31 µM in assay [9] and 1.37 µM in assay [10]. Also, the TGI turned out to be 29.3 µM in assay [1]; 4.81 µM in [2]; 10.2 µM in [3]; 5.4 µM in [4]; 4.1 µM in [5]; 3.4 µM in [6]. Besides, the TGI came out at 18.5 µM in assay [7], 4.86 µM in assay [8], 11.7 µM in assay [9] and 2.77 µM in [10].

On to `COc1cc(OCc2cccc(-c3ccccc3)c2C)cc(OC)c1CN1CCCCC1C(=O)NCCOCCOCCN` (stereo not drawn), for which the GI50 in assay [1] is 14.7 µM; in assay [2], 1.57 µM; in assay [3], 2.76 µM; in assay [4] it was 3.09 µM; in assay [5], 1.93 µM; in [6] it was 1.83 µM. Besides, the GI50 is 2.47 µM in assay [7], 2.38 µM in assay [8], 3.43 µM in assay [9] and 10.6 µM in [10]. Further, the TGI in [1] was 30.9 µM; in assay [2], 5.45 µM; in assay [3], 11.6 µM; in assay [4], 11.1 µM; in [5] it was 4.56 µM; in [6] it was 3.73 µM. The TGI in [7] was determined as 7.01 µM; in assay [8], 6.65 µM; in assay [9], 13 µM; in assay [10], 22.9 µM.

As for `COc1ccc2c(c1)CN([C@@H](C)[C@H]1CC[C@H]3[C@@H]4CC[C@H]5C[C@@H](O)CC[C@]5(C)[C@H]4CC[C@]13C)CO2`, the TGI worked out at 24.3 µM in assay [1]; 3.71 µM in assay [2]; 7.46 µM in assay [3]; 3.75 µM in assay [4]; 4.14 µM in assay [5]; 2.47 µM in assay [6]. Further, the TGI in [7] was found to be 22.6 µM; in assay [8], 3.63 µM; in [9], 11.2 µM; in assay [10] it was 3.39 µM.
